# Laboratory results published in patent publication US6514997B2, “Antipicornaviral compounds and compositions, their pharmaceutical uses, and materials for their synthesis” (Agouron Pharmaceuticals, Inc., priority 1999, dated 2003).
# Legend:
# [1] = test system: HRV-14; experiment: Antirhinoviral H1-HeLa cell culture assay (XTT cell protection, EC50), HRV-14; type: cell-based, human rhinovirus (HRV) serotype-14 in H1-HeLa cells; conditions: Rhinovirus B, HRV14, H1-HeLa
# Method in brief: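 H1-HeLa cells were infected with HRV-14 at m.o.i. 0.13, or mock-infected, and incubated with compound for two days. Cell protection was read by XTT/PMS formazan absorbance at 450/650 nm to give EC50. CC50 came from mock-infected cells, and TI = CC50/EC50.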
# [2] = test system: H1-HeLa cells; experiment: Cytotoxicity (CC50) in mock-infected H1-HeLa cells, XTT dye reduction; type: cell-based, human
# Method in brief: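 H1-HeLa cells mock-infected, read by XTT/PMS formazan at 450/650 nm.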
# [3] = test system: Coxsackievirus type A-21 (CAV-21); experiment: Anticoxsackieviral cell culture assay (XTT, EC50), CAV-21; type: cell-based, coxsackievirus A-21 in H1-HeLa cells; conditions: Coxsackievirus, H1-HeLa
# Method: Anticoxsackieviral Cell Culture Assay:
# Coxsackievirus types A-21 (CAV-21) and B3 (CVB3) were purchased from American Type Culture Collection (ATCC, Rockville, Md.). Virus stocks were propagated and antiviral assays were performed in H1-HeLa cells (ATCC). Cells were grown in minimal essential medium with 10% fetal bovine serum (Life Technologies, Gaithersburg, Md.). The ability of the compounds of this invention to protect cells against either CAV-21 or CVB3 infection was measured by the XTT dye reduction method. This method is described in Weislow et al., J. Natl. Cancer Inst. (1989), vol. 81, 577-586. H1-HeLa cells were infected with CAV-21 or CVB3 at a multiplicity of infection (m.o.i.) of 0.025 or 0.075, respectively, or mock-infected with medium only. H1-HeLa cells were plated at 4×10^4 cells per well in a 96-well plate and incubated with appropriate concentrations of the test compound. One day (CVB3) or two days (CAV-21) later, XTT/PMS was added to test plates and the amount of formazan produced was quantified spectrophotometrically at 450/650 nm. […] The therapeutic index (TI) was calculated by dividing the CC50 by the EC50.
# [4] = test system: coxsackievirus B2 (CVB2); experiment: Antiviral cell culture assay (EC50), coxsackievirus B2; type: cell-based; conditions: Enterovirus B
# [5] = test system: coxsackievirus B5 (CVB5); experiment: Antiviral cell culture assay (EC50), coxsackievirus B5; type: cell-based; conditions: Enterovirus B
# [6] = test system: echovirus 9 (ECHO-9); experiment: Antiviral cell culture assay (EC50), echovirus 9; type: cell-based; conditions: Enterovirus B; ECHO9
compound,measurement,setting,value
"C#CC[C@@H](C(=O)N[C@H](/C=C/C(=O)OCc1ccccc1)C[C@@H]1CCNC1=O)n1cccc(NC(=O)c2cc(C)on2)c1=O [Compound 63, trans-(2′S,3′″″S,4S)-4-[2′-(3″-{[1′″-(5″″-Methylisoxazol-3″″-yl)methanoyl]amino}-2′″-oxo-2′″H-pyridin-1′″-yl)pent-4″-ynoylamino]-5-(2′″″-oxopyrrolidin-3′″″-yl)pent-2-enoic Acid Benzyl Ester]",EC50,[1],0.051 µM
same,CC50,[2]; HRV-1A,> 10 µM
same,CC50,[2]; HRV-2,> 10 µM
same,CC50,[2]; HRV-3,> 10 µM
same,CC50,[2]; HRV-9,> 10 µM
same,CC50,[2]; HRV-10,> 10 µM
same,CC50,[2]; HRV-11,> 10 µM
same,CC50,[2]; HRV-13,> 10 µM
same,CC50,[2]; HRV-16,> 10 µM
same,CC50,[2]; HRV-19,> 10 µM
same,CC50,[2]; HRV-23,> 10 µM
same,CC50,[2]; HRV-25,> 10 µM
same,CC50,[2]; HRV-39,> 10 µM
same,CC50,[2]; HRV-78,> 10 µM
same,CC50,[2]; HRV-Hanks,> 10 µM
same,EC50,[3],0.153 µM
same,EC50,[4],0.012 µM
same,EC50,[5],0.01 µM
same,EC50,[6],0.002 µM
